Data: the NIST ThermoML archive (doi:10.1016/j.fluid.2015.08.029)

Experiment: xn = mol fraction of the nth substance listed
Settings: Buoyancy - hydrostatic balance with magnetic suspension - one sinker, x2 = 0.95

C [methane] + O=C=O
Settings	mass density [kg/m3]
300.07 K, 7972.2 kPa, Fluid (supercritical or subcritical phases)	556.595
300.14 K, 8371 kPa, Fluid (supercritical or subcritical phases)	616.06
300.14 K, 8570.3 kPa, Fluid (supercritical or subcritical phases)	633.917
300.15 K, 8770.2 kPa, Fluid (supercritical or subcritical phases)	648.153
300.15 K, 8969.4 kPa, Fluid (supercritical or subcritical phases)	660.072
300.15 K, 9169.7 kPa, Fluid (supercritical or subcritical phases)	670.371
300.15 K, 9370.4 kPa, Fluid (supercritical or subcritical phases)	679.432
300.15 K, 9569.6 kPa, Fluid (supercritical or subcritical phases)	687.435
300.15 K, 9968.4 kPa, Fluid (supercritical or subcritical phases)	701.498
300.16 K, 9768.4 kPa, Fluid (supercritical or subcritical phases)	694.681
300.17 K, 8169.8 kPa, Fluid (supercritical or subcritical phases)	590.047
301.07 K, 7972.4 kPa, Fluid (supercritical or subcritical phases)	491.013
301.08 K, 7573.6 kPa, Liquid	317.651
301.11 K, 7972.7 kPa, Liquid	489.743
301.11 K, 8970.7 kPa, Liquid	641.991
301.13 K, 6976 kPa, Gas	227.803
301.13 K, 7872.3 kPa, Liquid	446.609
301.14 K, 4003.5 kPa, Gas	86.6567
301.14 K, 5978.2 kPa, Gas	160.13
301.14 K, 7972.1 kPa, Liquid	486.831
301.14 K, 8170.1 kPa, Liquid	548.746
301.14 K, 8371.5 kPa, Fluid (supercritical or subcritical phases)	585.039
301.14 K, 8570.7 kPa, Fluid (supercritical or subcritical phases)	609.188
301.14 K, 9969.4 kPa, Liquid	689.045
301.14 K, 10967 kPa, Liquid	718.917
301.14 K, 11966 kPa, Liquid	741.154
301.15 K, 1990.5 kPa, Gas	37.5288
301.15 K, 2980.5 kPa, Gas	59.7905
301.15 K, 4979.8 kPa, Gas	117.931
301.15 K, 7772.9 kPa, Liquid	394.053
301.15 K, 8071.6 kPa, Liquid	522.073
301.15 K, 8271.7 kPa, Liquid	569.213
301.15 K, 8770.5 kPa, Fluid (supercritical or subcritical phases)	627.154
301.15 K, 8970.7 kPa, Fluid (supercritical or subcritical phases)	641.721
301.15 K, 9370.6 kPa, Fluid (supercritical or subcritical phases)	664.364
301.15 K, 9568.5 kPa, Fluid (supercritical or subcritical phases)	673.475
301.15 K, 9768.6 kPa, Fluid (supercritical or subcritical phases)	681.815
301.15 K, 9968.2 kPa, Fluid (supercritical or subcritical phases)	689.247
301.16 K, 7673.5 kPa, Liquid	347.909
301.16 K, 9169.7 kPa, Fluid (supercritical or subcritical phases)	653.715
301.17 K, 8170.5 kPa, Fluid (supercritical or subcritical phases)	547.088
302.07 K, 7971.5 kPa, Fluid (supercritical or subcritical phases)	416.856
302.09 K, 7574.3 kPa, Liquid	293.998
302.14 K, 7873.7 kPa, Liquid	376.389
302.14 K, 8073.1 kPa, Liquid	455.2
302.14 K, 8171.5 kPa, Liquid	491.43
302.14 K, 8273.3 kPa, Liquid	521.984
302.15 K, 7774.4 kPa, Liquid	340.924
302.15 K, 7973.5 kPa, Liquid	414.824
302.15 K, 8570 kPa, Fluid (supercritical or subcritical phases)	578.598
302.15 K, 8769.9 kPa, Fluid (supercritical or subcritical phases)	602.454
302.15 K, 8969.1 kPa, Fluid (supercritical or subcritical phases)	620.555
302.15 K, 9168.8 kPa, Fluid (supercritical or subcritical phases)	635.22
302.15 K, 9369 kPa, Fluid (supercritical or subcritical phases)	647.538
302.16 K, 7674.4 kPa, Liquid	312.96
302.16 K, 8169.9 kPa, Fluid (supercritical or subcritical phases)	489.715
302.16 K, 8371.1 kPa, Fluid (supercritical or subcritical phases)	543.85
302.16 K, 9568.3 kPa, Fluid (supercritical or subcritical phases)	658.091
302.16 K, 9768.3 kPa, Fluid (supercritical or subcritical phases)	667.497
302.16 K, 9970.6 kPa, Fluid (supercritical or subcritical phases)	676.016
303.08 K, 7971 kPa, Fluid (supercritical or subcritical phases)	368.276
303.15 K, 8169 kPa, Fluid (supercritical or subcritical phases)	434.951
303.15 K, 8369.8 kPa, Fluid (supercritical or subcritical phases)	500.535
303.15 K, 8569.4 kPa, Fluid (supercritical or subcritical phases)	546.267
303.15 K, 8770.2 kPa, Fluid (supercritical or subcritical phases)	577.054
303.16 K, 9168.7 kPa, Fluid (supercritical or subcritical phases)	616.875
303.16 K, 9368.4 kPa, Fluid (supercritical or subcritical phases)	631.164
303.16 K, 9567.7 kPa, Fluid (supercritical or subcritical phases)	643.384
303.16 K, 9967.1 kPa, Fluid (supercritical or subcritical phases)	663.476
303.17 K, 8969.3 kPa, Fluid (supercritical or subcritical phases)	598.947
303.17 K, 9768 kPa, Fluid (supercritical or subcritical phases)	653.938
304.1 K, 7971.1 kPa, Fluid (supercritical or subcritical phases)	329.354
304.14 K, 8569.2 kPa, Fluid (supercritical or subcritical phases)	496.33
304.14 K, 8968.4 kPa, Fluid (supercritical or subcritical phases)	567.739
304.15 K, 8769.3 kPa, Fluid (supercritical or subcritical phases)	537.629
304.15 K, 9169.5 kPa, Fluid (supercritical or subcritical phases)	590.204
304.15 K, 9567.9 kPa, Fluid (supercritical or subcritical phases)	622.735
304.16 K, 8171.5 kPa, Fluid (supercritical or subcritical phases)	378.227
304.16 K, 9973.8 kPa, Fluid (supercritical or subcritical phases)	646.365
304.17 K, 8370 kPa, Fluid (supercritical or subcritical phases)	438.794
304.17 K, 9370.7 kPa, Fluid (supercritical or subcritical phases)	607.811
304.17 K, 9767.3 kPa, Fluid (supercritical or subcritical phases)	634.947
305.11 K, 7971.7 kPa, Fluid (supercritical or subcritical phases)	307.661
305.15 K, 8371 kPa, Fluid (supercritical or subcritical phases)	394.247
305.15 K, 8569.8 kPa, Fluid (supercritical or subcritical phases)	449.045
305.15 K, 8769.4 kPa, Fluid (supercritical or subcritical phases)	497.809
305.15 K, 8968.6 kPa, Fluid (supercritical or subcritical phases)	535.323
305.15 K, 9168.3 kPa, Fluid (supercritical or subcritical phases)	563.28
305.15 K, 9568.1 kPa, Fluid (supercritical or subcritical phases)	602.629
305.16 K, 8169.9 kPa, Fluid (supercritical or subcritical phases)	344.406
